What was measured:
Format in all cases: in vivo
[1] = system: SAGPY Sagittaria pygmaea; test: Herbicidal action on SAGPY, visual scoring on a percentage scale vs untreated control
Description: (§1) Seeds or root segments of monocotyledonous and dicotyledonous harmful plants are placed in sandy loam in pots and covered with soil. In the case of spray application, the compositions formulated as concentrated aqueous solutions, wettable powders or emulsion concentrates, are then applied to the surface of the covering soil as aqueous solution, suspension or emulsion, respectively, at an application rate of 600 to 800 l of water per ha (converted) in a variety of dosages. Immediately to a few days after the application, the test containers are flooded with water up to a depth of 30 mm above the soil surface. In the case of submerged application, in contrast, the soil in the closed test container is already covered with paddy water up to a depth of 30 mm at the time of application. Here, the formulated active ingredients are added directly to the paddy water, for example in the form of granules. After the treatment, the pots are placed in a greenhouse and kept under good growth conditions for the weeds. […] When using suitable low dosages, the values observed in the experiments show an effect of the combinations which exceed the expected values calculated using Colby's formula.
(§2) The herbicidal efficacy of the active ingredients or active ingredient mixtures was scored visually by comparing the treated variants with untreated control variants. The damage and development of all aerial plant parts was recorded. […]
Seeds or root segments of monocotyledonous and dicotyledonous weeds are placed in sandy loam in pots, covered with soil and grown in the greenhouse under good growth conditions (temperature, atmospheric humidity, water supply). […] After the experimental plants have remained in the greenhouse under optimal growth conditions for a further 3 to 4 weeks, the effect of the preparations is scored visually in comparison with untreated controls. […] When using suitable low dosages, the values observed in the experiments show an effect of the combinations which exceed the expected values calculated using Colby's formula. […]

[2] = system: SCPJU Scirpus juncoides; test: Herbicidal action on SCPJU, visual scoring on a percentage scale vs untreated control
Description: (§3) Seeds or root segments of monocotyledonous and dicotyledonous harmful plants are placed in sandy loam in pots and covered with soil. In the case of spray application, the compositions formulated as concentrated aqueous solutions, wettable powders or emulsion concentrates, are then applied to the surface of the covering soil as aqueous solution, suspension or emulsion, respectively, at an application rate of 600 to 800 l of water per ha (converted) in a variety of dosages. Immediately to a few days after the application, the test containers are flooded with water up to a depth of 30 mm above the soil surface. In the case of submerged application, in contrast, the soil in the closed test container is already covered with paddy water up to a depth of 30 mm at the time of application. Here, the formulated active ingredients are added directly to the paddy water, for example in the form of granules. After the treatment, the pots are placed in a greenhouse and kept under good growth conditions for the weeds. Visual scoring of the plant damage or the adverse effect on the emergence is carried out after the test plants have emerged after an experimental period of 3 to 4 weeks in comparison with untreated controls. […] Frequently, effects of the combinations according to the invention are observed which exceed the formal total of the effects when the herbicides are applied individually. When using suitable low dosages, the values observed in the experiments show an effect of the combinations which exceed the expected values calculated using Colby's formula.
(§4) The herbicidal efficacy of the active ingredients or active ingredient mixtures was scored visually by comparing the treated variants with untreated control variants. The damage and development of all aerial plant parts was recorded. Scoring was done on a percentage scale (100% action=all plants dead; 50% action=50% of the plants and green plant parts dead; 0% action=no discernible action=like untreated control plot).
(§5) Seeds or root segments of monocotyledonous and dicotyledonous weeds are placed in sandy loam in pots, covered with soil and grown in the greenhouse under good growth conditions (temperature, atmospheric humidity, water supply). Approximately three weeks after planting, the experimental plants are treated with the compositions according to the invention. In the case of spray application, the compositions according to the invention, which are formulated as wettable powders or emulsion concentrates, are sprayed onto the green plant parts in various dosages with an application rate of 600 to 800 l of water per ha (converted). Immediately to a few days after the application, the test containers are flooded with water up to a depth of 30 mm above the soil surface. In the case of submerged application, in contrast, the soil in the closed test container is already covered with paddy water up to a depth of 30 mm at the time of application. Here, the formulated active ingredients are added directly to the paddy water. After the experimental plants have remained in the greenhouse under optimal growth conditions for a further 3 to 4 weeks, the effect of the preparations is scored visually in comparison with untreated controls. The compositions according to the invention also have an outstanding herbicidal action against a broad spectrum of economically important grass weeds and broad-leaved weeds when applied post-emergence. Frequently, effects of the combinations according to the invention are observed which exceed the formal total of the effects when the herbicides are applied individually. When using suitable low dosages, the values observed in the experiments show an effect of the combinations which exceed the expected values calculated using Colby's formula.
Crop plants were grown in the open on plots under natural field conditions, seeds or root segments of typical harmful plants having been planted and the natural weed flora being exploited. […]

[3] = system: MOOVA; test: Herbicidal action on MOOVA, visual scoring on a percentage scale vs untreated control
Description: as §1, with “granules.” for “granules. After the treatment, the pots are placed in a greenhouse and kept under good growth conditions for the weeds.”
as §2

[4] = system: PHBPU; test: Herbicidal action on PHBPU, visual scoring on a percentage scale vs untreated control
Description: as §3, §4
as §5, with “The compositions according to the invention also have an outstanding herbicidal action against a broad spectrum of economically important grass weeds and broad-leaved weeds when applied post-emergence. Frequently, effects of the combinations according to the invention are observed which exceed the formal total of the effects when the herbicides are applied individually.” left out, “formula. […]” for “formula.”

[5] = system: SEBEX Sesbania exaltata; test: Herbicidal action on SEBEX, visual scoring on a percentage scale vs untreated control
Description: as §3, §4
as §5, with “The compositions according to the invention also have an outstanding herbicidal action against a broad spectrum of economically important grass weeds and broad-leaved weeds when applied post-emergence. Frequently, effects of the combinations according to the invention are observed which exceed the formal total of the effects when the herbicides are applied individually.” left out, “formula. […]” for “formula.”

[6] = system: CYPSE; test: Herbicidal action on CYPSE, visual scoring on a percentage scale vs untreated control
[7] = system: ECHOR; test: Herbicidal action on ECHOR, visual scoring on a percentage scale vs untreated control; conditions: Example B.XII, dosage 25 g ai/ha
Description: as §1, with “granules.” for “granules. After the treatment, the pots are placed in a greenhouse and kept under good growth conditions for the weeds.”
as §2

[8] = system: CHEAL; test: Herbicidal action on CHEAL, visual scoring on a percentage scale vs untreated control
Description: as §1, with “granules.” for “granules. After the treatment, the pots are placed in a greenhouse and kept under good growth conditions for the weeds.”
as §2

[9] = system: ECHCG; test: Herbicidal action on ECHCG, visual scoring on a percentage scale vs untreated control
Description: as §1, with “granules.” for “granules. After the treatment, the pots are placed in a greenhouse and kept under good growth conditions for the weeds.”
as §2

[10] = Example B.X, dosage 1.8 g ai/ha
[11] = Example B.IV, dosage 20 g ai/ha
[12] = Example B.XV, dosage 4.3 g ai/ha
[13] = Example B.XIII, dosage 22 g ai/ha
[14] = Example B.IX, dosage 187 g ai/ha

COC(=O)c1c(Cl)nn(C)c1S(=O)(=O)NC(=O)Nc1nc(OC)cc(OC)n1 [Compound B2.5, halosulfuron-methyl]
found (herbicidal action) ([1]; Example B.XI, dosage 7.5 g ai/ha): 0%
found (herbicidal action) ([2]; Example B.XI, dosage 15 g ai/ha): 0%

COc1cc(OC)nc(Oc2cccc(Oc3nc(OC)cc(OC)n3)c2C(=O)O)n1 [Compound B2.2, bispyribac-sodium]
found (herbicidal action) [3, 10]: 0%
found (herbicidal action) [2, 10]: 0%

COc1cc(OC)n2nc(S(=O)(=O)Nc3c(Cl)ccc(C)c3Cl)nc2n1 [Compound B2.13, metosulam]
found (herbicidal action) ([4]; B.III, dosage 2.5 g ai/ha): 85%
found (herbicidal action) ([5]; B.III, dosage 2.5 g ai/ha): 30%

CCOC(=O)C(C)Oc1ccc(Oc2nc3ccc(Cl)cc3o2)cc1 (stereo not shown) [Compound B4.2, fenoxaprop-ethyl]
found (herbicidal action) [4, 11]: 0%
found (herbicidal action) [5, 11]: 0%

CC1=C(c2ccccc2)C(=O)N(C(C)(C)c2cc(Cl)cc(Cl)c2)CO1 [Compound B5.2, oxaziclomefone]
found (herbicidal action) [6, 12]: 0%
found (herbicidal action) [2, 12]: 0%

CCC(=O)Nc1ccc(Cl)c(Cl)c1 [Compound B8.1, propanil]
found (herbicidal action) ([3]; Example B.XVI, dosage 187 g ai/ha): 0%
found (herbicidal action) ([2]; Example B.XVI, dosage 375 g ai/ha): 0%

CC1(C)CON(Cc2ccccc2Cl)C1=O [Compound B3.1, clomazone]
found (herbicidal action) [7]: 30%
found (herbicidal action) ([6]; Example B.XII, dosage 50 g ai/ha): 0%

CN(C(=O)COc1nc2ccccc2s1)c1ccccc1 [Compound B5.1, mefenacet]
found (herbicidal action) ([1]; Example B.XIV, dosage 63 g ai/ha): 0%
found (herbicidal action) ([2]; Example B.XIV, dosage 125 g ai/ha): 0%

O=C(O)CNCP(=O)(O)O [Compound B11.1, glyphosate]
found (herbicidal action) ([8]; Example B.VIII, dosage 100 g ai/ha): 0%

CCc1cnc(C2=NC(C)(C(C)C)C(=O)N2)c(C(=O)O)c1 (stereo not shown) [Compound B2.9, imazethapyr]
found (herbicidal action) ([4]; Example B.II, dosage 5 g ai/ha): 5%
found (herbicidal action) ([8]; Example B.II, dosage 10 g ai/ha): 5%

CCCCOC(=O)[C@@H](C)Oc1ccc(Oc2ccc(C#N)cc2F)cc1 [Compound B4.1, cyhalofop-butyl]
found (herbicidal action) [6, 13]: 0%
found (herbicidal action) [2, 13]: 0%

O=C(O)c1c(Cl)ccc2cc(Cl)cnc12 [Compound B9.1, quinclorac]
found (herbicidal action) ([4]; Example B.VI, dosage 10 g ai/ha): 78%
found (herbicidal action) ([5]; Example B.VI, dosage 5 g ai/ha): 0%

CP(=O)(O)CCC(N)C(=O)O (stereo not shown) [Compound B10.1, glufosinate]
found (herbicidal action) ([9]; Example B.VII, dosage 50 g ai/ha): 0%
found (herbicidal action) ([5]; Example B.VII, dosage 100 g ai/ha): 5%

CCN(CC)C(=O)SCc1ccc(Cl)cc1 [Compound B1.2, thiobencarb]
found (herbicidal action) [1, 14]: 0%
found (herbicidal action) [2, 14]: 20%

COc1cc(OC)nc(NC(=O)NS(=O)(=O)Cc2ccccc2C(=O)O)n1 [Compound B2.1, bensulfuron]
found (herbicidal action) ([6]; Example B.I, dosage 10 g ai/ha): 68%
found (herbicidal action) ([5]; Example B.I, dosage 20 g ai/ha): 45%

CCC(CC)Nc1c([N+](=O)[O-])cc(C)c(C)c1[N+](=O)[O-] [Compound B7.1, pendimethalin]
found (herbicidal action) ([4]; Example B.V, dosage 100 g ai/ha): 75%
found (herbicidal action) ([9]; Example B.V, dosage 200 g ai/ha): 78%
